ChEMBL document CHEMBL3885881, “DrugMatrix”

Species: Rattus norvegicus
Experiment: DrugMatrix - Regimen: Daily Repeat
Assay type: toxicity, organism-based, Sprague-Dawley
Parameters: regimen Daily Repeat, gender Male, age 6-8 weeks
Conditions: in vivo, po, route oral GAVAGE, vehicle 100 % WATER; for ABSOLUTE BASOPHIL / ABSOLUTE EOSINOPHIL / ABSOLUTE LYMPHOCYTE / ABSOLUTE MONOCYTE / ABSOLUTE SEGMENTED NEUTROPHIL / BASOPHIL / EOSINOPHIL / ERYTHROCYTE COUNT / HEMATOCRIT / HEMOGLOBIN / LEUKOCYTE COUNT / LYMPHOCYTE / MEAN CORPUSCULAR HEMOGLOBIN / MEAN CORPUSCULAR HEMOGLOBIN CONCENTRATION / MEAN CORPUSCULAR VOLUME / MONOCYTE / NEUTROPHIL / NUCLEATED RED BLOOD CELLS / PLATELET COUNT: tissue Blood; for ALANINE AMINOTRANSFERASE / ALBUMIN / ALKALINE PHOSPHATASE / ASPARTATE AMINOTRANSFERASE / BLOOD UREA NITROGEN / CARBON DIOXIDE / CHLORIDE / CHOLESTEROL / CREATINE PHOSPHOKINASE / CREATININE / GLUCOSE / LACTATE DEHYDROGENASE / LIPASE / PHOSPHORUS / POTASSIUM / SODIUM / TOTAL BILIRUBIN / TOTAL PROTEIN / URIC ACID: tissue Plasma
[1] = 0 mg/kg, 72 h, dose level Control, time 3 day
[2] = 0 mg/kg, 120 h, dose level Control, time 5 day
[3] = 10 mg/kg, 72 h, dose level Low, time 3 day

Q: What does the source list for `NNc1nncc2ccccc12` [HYDRALAZINE]?
A: ABSOLUTE BASOPHIL [1]: 0 CELLS/uL; ABSOLUTE EOSINOPHIL [1]: 20.17 CELLS/uL; ABSOLUTE LYMPHOCYTE [1]: 12371.67 CELLS/uL; ABSOLUTE MONOCYTE [1]: 166 CELLS/uL; ABSOLUTE SEGMENTED NEUTROPHIL [1]: 1292.17 CELLS/uL; BASOPHIL [1]: 0%; EOSINOPHIL [1]: 0.17%; ERYTHROCYTE COUNT [1]: 5.46 x10E6/uL; HEMATOCRIT [1]: 34.38%; HEMOGLOBIN [1]: 13.32 G/DL; LEUKOCYTE COUNT [1]: 13.85 x10E3/uL; LYMPHOCYTE [1]: 88.5%; MEAN CORPUSCULAR HEMOGLOBIN [1]: 24.42 pg; MEAN CORPUSCULAR HEMOGLOBIN CONCENTRATION [1]: 38.7 G/DL; MEAN CORPUSCULAR VOLUME [1]: 63.07 fL; MONOCYTE [1]: 1.17%; NEUTROPHIL [1]: 10.17%; NUCLEATED RED BLOOD CELLS [1]: 0.17 /100WBC; PLATELET COUNT [1]: 1193.5 x10E3/uL; ALANINE AMINOTRANSFERASE [1]: 54.5 u/L; ALBUMIN [1]: 4.02 G/DL; ALKALINE PHOSPHATASE [1]: 346.5 u/L; ASPARTATE AMINOTRANSFERASE [1]: 103.17 u/L; BLOOD UREA NITROGEN [1]: 16.5 mg/dL; CARBON DIOXIDE [1]: 29.83 mmol/L; CHLORIDE [1]: 99.5 MEQ/L; CHOLESTEROL [1]: 72.5 mg/dL; CREATINE PHOSPHOKINASE [1]: 532.5 u/L; CREATININE [1]: 0.18 mg/dL; GLUCOSE [1]: 168.5 mg/dL; LACTATE DEHYDROGENASE [1]: 536.5 u/L; LIPASE [1]: 11.17 u/L; PHOSPHORUS [1]: 11.48 mg/dL; POTASSIUM [1]: 5.95 MEQ/L; SODIUM [1]: 140.5 MEQ/L; TOTAL BILIRUBIN [1]: 0.18 mg/dL; TOTAL PROTEIN [1]: 5.77 G/DL; URIC ACID [1]: 1.42 mg/dL; ABSOLUTE BASOPHIL [2]: 0 CELLS/uL; ABSOLUTE EOSINOPHIL [2]: 22.83 CELLS/uL; ABSOLUTE LYMPHOCYTE [2]: 12202.83 CELLS/uL; ABSOLUTE MONOCYTE [2]: 158 CELLS/uL; ABSOLUTE SEGMENTED NEUTROPHIL [2]: 1283 CELLS/uL; BASOPHIL [2]: 0%; EOSINOPHIL [2]: 0.17%; ERYTHROCYTE COUNT [2]: 5.88 x10E6/uL; HEMATOCRIT [2]: 36.62%; HEMOGLOBIN [2]: 14.07 G/DL; LEUKOCYTE COUNT [2]: 13.67 x10E3/uL; LYMPHOCYTE [2]: 89.5%; MEAN CORPUSCULAR HEMOGLOBIN [2]: 23.95 pg; MEAN CORPUSCULAR HEMOGLOBIN CONCENTRATION [2]: 38.43 G/DL; MEAN CORPUSCULAR VOLUME [2]: 62.28 fL; MONOCYTE [2]: 1.17%; NEUTROPHIL [2]: 9.17%; NUCLEATED RED BLOOD CELLS [2]: 0.17 /100WBC; PLATELET COUNT [2]: 1198 x10E3/uL; ALANINE AMINOTRANSFERASE [2]: 51 u/L; ALBUMIN [2]: 4.3 G/DL; ALKALINE PHOSPHATASE [2]: 343 u/L; ASPARTATE AMINOTRANSFERASE [2]: 89.83 u/L; BLOOD UREA NITROGEN [2]: 17.67 mg/dL; CARBON DIOXIDE [2]: 27.17 mmol/L; CHLORIDE [2]: 98.33 MEQ/L; CHOLESTEROL [2]: 82.5 mg/dL; CREATINE PHOSPHOKINASE [2]: 533.33 u/L; CREATININE [2]: 0.18 mg/dL; GLUCOSE [2]: 152.67 mg/dL; LACTATE DEHYDROGENASE [2]: 220.33 u/L; LIPASE [2]: 11.5 u/L; PHOSPHORUS [2]: 11.25 mg/dL; POTASSIUM [2]: 6.29 MEQ/L; SODIUM [2]: 140.53 MEQ/L; TOTAL BILIRUBIN [2]: 0.22 mg/dL; TOTAL PROTEIN [2]: 6.12 G/DL; URIC ACID [2]: 1.42 mg/dL; ABSOLUTE BASOPHIL [3]: 0 CELLS/uL; ABSOLUTE EOSINOPHIL [3]: 33.33 CELLS/uL; ABSOLUTE LYMPHOCYTE [3]: 12179.67 CELLS/uL; ABSOLUTE MONOCYTE [3]: 152 CELLS/uL; ABSOLUTE SEGMENTED NEUTROPHIL [3]: 1268.33 CELLS/uL; BASOPHIL [3]: 0%; EOSINOPHIL [3]: 0.33%; ERYTHROCYTE COUNT [3]: 5.03 x10E6/uL; HEMATOCRIT [3]: 31.97%; HEMOGLOBIN [3]: 12.87 G/DL; LEUKOCYTE COUNT [3]: 13.63 x10E3/uL; LYMPHOCYTE [3]: 89.67%; MEAN CORPUSCULAR HEMOGLOBIN [3]: 25.6 pg; MEAN CORPUSCULAR HEMOGLOBIN CONCENTRATION [3]: 40.27 G/DL; MEAN CORPUSCULAR VOLUME [3]: 63.57 fL; MONOCYTE [3]: 1%; NEUTROPHIL [3]: 9%; NUCLEATED RED BLOOD CELLS [3]: 0 /100WBC; PLATELET COUNT [3]: 1225.67 x10E3/uL; ALANINE AMINOTRANSFERASE [3]: 46.67 u/L; ALBUMIN [3]: 3.87 G/DL; ALKALINE PHOSPHATASE [3]: 333.67 u/L; ASPARTATE AMINOTRANSFERASE [3]: 83.33 u/L; BLOOD UREA NITROGEN [3]: 16 mg/dL; CARBON DIOXIDE [3]: 30.33 mmol/L; CHLORIDE [3]: 100.33 MEQ/L; CHOLESTEROL [3]: 61.33 mg/dL; CREATINE PHOSPHOKINASE [3]: 318 u/L; CREATININE [3]: 0.15 mg/dL; GLUCOSE [3]: 154 mg/dL; LACTATE DEHYDROGENASE [3]: 304.33 u/L; LIPASE [3]: 10.33 u/L; PHOSPHORUS [3]: 11.37 mg/dL; POTASSIUM [3]: 6.36 MEQ/L; SODIUM [3]: 141.6 MEQ/L; TOTAL BILIRUBIN [3]: 0.2 mg/dL; TOTAL PROTEIN [3]: 5.7 G/DL; URIC ACID [3]: 1.67 mg/dL
